We go through one substance from patent US11274131B2, “IgM-mediated receptor clustering and cell modulation” (MAYO FOUNDATION FOR MEDICAL EDUCATION AND RESEARCH, priority 2007, dated 2022).

One experiment concerns B16-Ova cells. Nature of the experiment: B16-Ova tumor challenge with Ova-pulsed antibody-treated DCs. The format is in vivo, mouse. As to conditions: mice given wild type DCs or B7DC reconstituted knockout DCs treated with antibody. The method, then:
FIG. 17 is a graph depicting protection of mice from B16-Ova tumor challenge by injection of Ova-pulsed DCs expressing the Kb-peptide constructs treated with MTabs. Tumor area was measured daily, with tumor area on day 11 represented in the graph.
DCs treated with hIgM12 can induce potent anti-tumor immunity. […] A variation of this model was used to determine whether Kb-peptide expressing DCs could induce protective tumor immunity. C57BL6 mice were injected subcutaneously in the right flank with 5×10^5 B16-Ova cells, a B16 variant engineered to express ovalbumin. Wild type DCs or B7DC−/− DCs transduced with mB7DC or the Kb constructs were pulsed with 10 ug/mL ovalbumin and treated with 10 ug/mL of either hIgM12 or hIgM22, 24 hours prior to injection. Before injection, DCs were washed and resuspended in 200 μL, HBSS. 10^6 DCs were injected intravenously by tail vein concurrent to B16 injection. Three mice were used in each treatment group. Tumor area was measured daily, and mice were sacrificed when tumor area reached 289 mm^2. […] Thus, DC expressing Kb-peptide fusions were able to induce protective tumor immunity.

The next experiment deals with matured mouse DC. Description: Antigen uptake assay, matured mouse DC. The format is cell-based. The method, then: For transducing DC with the virus, 1 ml of supernatant containing the scrambled virus or shDNA containing dominant negative TREM-2 virus was mixed with 2 ml of RPMI. Cytokines were added to a final concentration of 10 ng/ml murine GM-CSF and 1 ng/ml murine IL-4 at day 2 of DC culture. Cells were maintained for another 3 days before using the DC for antigen uptake assay as mentioned above or for analysis of phosphorylation status of DAP12 and Syk proteins.
Antigen uptake experiments were carried out as described previously (Radhakrishnan et al. (2005) Proc. Natl. Acad. Sci. U.S.A. 102:11438-11443). Day 5 DC were matured with TLR ligand CpG-ODN for mouse DC, or with pI:C for human DC. The matured cells were incubated with ovalbumin labeled with FITC or APC and control antibody or B7-DC XAb for two hours, washed and analyzed by FACSCALIBUR™ (Becton Dickinson). In studies involving inhibitors, cells were pretreated 30 minutes as indicated or at 10 μM concentration prior to addition of control antibody or B7-DC XAb. In vivo antigen uptake assays involving wild type or TREM-2−/− mice were carried out by intravenous injection of 10 μg of control antibody or B7-DC XAb on three consecutive days (days −1, 0 and +1). Ovalbumin coupled to FITC was injected in the right foot pad at 1 mg/ml in PBS at […]. The draining lymph node cells were harvested 48 hours after injection of antigen, and stained with anti-mouse CD11c-PE. The data are expressed as percent green cells (ovalbumin-FITC) that are positive for CD11c.

For experiment [1], the system named is OT-II CD4+CD25+ Treg cells. Nature of the experiment: Conversion of OT-II Tregs to Th17 phenotype by antibody-treated DCs. In kind it is cell-based, mouse. The method, then: FIG. 16 is a series of plots showing conversion of OT-II CD4 Treg cells to a Th17 phenotype by co-incubation with DCs expressing the Kb-peptide constructs treated with MTabs. OT-II CD4+CD25+ splenic Tregs were isolated by MACS and added 1:1 to DCs pulsed with Ovalbumin and treated with hIgM12, hIgM22, or 28-13-3. After 48 hours, the T cells were harvested, stained with CD4, and internally stained with FoxP3 PE and IL-17 APC. Expression was assayed by flow cytometry, and cells were gated on CD4.
This was measured by loss of FoxP3 expression and gain of IL-17 expression, corresponding to loss of a repressive phenotype and gain of an effector phenotype. Studies were conducted to compare the ability of wild type DCs or B7DC−/− B7DC reconstituted DCs to B7DC−/− transduced with the Kb-peptide constructs to convert Tregs to Th17 polarized T cells. DCs were pulsed with 10 ug/mL ovalbumin and treated with 10 ug/mL of either hIgM12, hIgM22, or 28-13-3, 24 hours prior to addition of T cells. Splenic OT-II Tregs were isolated by MACs and added to DC cultures at a 1:1 ratio. After 48 hours of co-incubation, T cells were harvested, stained with CD4 PerCP, and permeabilized and stained with FoxP3 PE and IL-17 APC. Samples were run by flow cytometry and cells were gated by high CD4 expression. Conversion was measured by loss of FoxP3 expression and gain of IL-17 expression.

The subject of the next experiment is mouse DC. Description: Calcium flux assay, mouse DC. The format is cell-based. On the procedure: Changes in the levels of intracellular Ca^2+ were assessed in Indol-loaded cells by flow cytometry as described previously (Takahashi et al. (2005) J. Exp. Med. 201:647-657). Briefly, 5×10^6 DC/ml were incubated with 5 μM Indo-1 (Calbiochem) at 37° C. for 30 minutes. The cells were washed twice in serum free media and resuspended at 10^6/ml in PBS containing 0.5% BSA. The samples were analyzed by flow cytometry using a UV laser. Violet (390 nm) and blue (500 nm) fluorescence emissions were recorded. Baseline was recorded for two minutes. Antibody was added to the cell suspension (10 μg/ml of control antibody or B7-DC XAb) and the measurements were recorded for 8 additional minutes. In blocking experiments, mouse or human DC were pre-incubated with 10 μg/ml of purified anti-mouse B7-DC antibody (TY-25) or purified anti-human B7-DC antibody (MIH18) for 15 minutes, followed by collection of data for calcium flux as described above. Ionomycin added at 1 μg/ml after 2 minutes served as a positive control. The blue to violet ratio was calculated using FlowJo software (Tristar, Ashland, Oreg.).

“B7-DC XAb: human monoclonal IgM from a Waldenstrom's macroglobulinemia patient that binds and cross-links B7-DC on DC”: the “protection from tumor outgrowth” value in the experiment on B16-Ova cells was “successfully protected from tumor outgrowth”. Further, the antigen uptake result with matured mouse DC (DC from CD40 KO mice) is recorded as “displayed enhanced antigen uptake”. For the same substance, the “ovalbumin uptake by matured DC” value with matured mouse DC (DC transduced with scrambled shDNA) is reported as “enhanced ovalbumin uptake”; with matured mouse DC (TREM-2 KO DC) it was “did not regain the ability to take up ovalbumin”. The “conversion of Tregs to Th17 polarized cells” value is reported as “responded” in experiment [1] (knockout DCs expressing Kb-12p9A); “converted Tregs to Th17 polarized cells” in experiment [1] (wild type DCs and B7DC reconstituted knockouts, 10 ug/mL). Also, the intracellular calcium signal result in the experiment with mouse DC is “prolonged calcium signals”.
